Tests used:
[1] = system: ddY male mice; assay: von Frey test, administration into spinal subarachnoid space, partial sciatic nerve ligation model; assay type: in vivo, mouse; conditions: for effect on escape reaction threshold (von Frey): control group subjected only to the dissection, administration into spinal subarachnoid space (10 nmol), compared to physiological saline; for effect on noxious response threshold (von Frey): neuropathic pain model (sciatic nerve bound), administration into spinal subarachnoid space, nefiracetam 1 and 10 nmol, morphine 10 nmol, oxiracetam 10 nmol
Protocol: 42 of ddY male mice having a body weight of 16 to 18 g were used. […] The mice were anesthetized with pentobarbital, and skin of right hind leg of each mouse was dissected so that sciatic nerve was observed. The half of sciatic nerve fibers was bound with a suture for 24 mice among 42 mice, and only the dissection was performed for the remaining 18 mice (a control group). After the dissection site was sutured, the animals were left for 7 days (Xun Ye et al, Jpn. J. Pharmacol. 2000, Malmberg A B and Basbaum A I, Pain 1998). […] The group of mice of which sciatic nerves were bound was divided into 4 groups, and the threshold was measured twice. The average of the values was used as a control value. Then, mice of each group were each administered with 5 μl (1 nmol) of nefiracetam, 5 μl (10 nmol) of nefiracetam, 5 μl (10 nmol) of morphine or 5 μl of physiological saline into spinal subarachnoid space. After the administration, the threshold was repeatedly measured for 60 minutes with intervals of 10 minutes. The group of mice that were subjected only to the dissection was divided into three groups, and a control value was measured in the same manner as described above. Then, mice of each group were each administered with 5 μl (10 nmol) of nefiracetam, 5 μl (10 nmol) of morphine or 5 μl of physiological saline into spinal subarachnoid space, and the threshold was measured in the same manner as described above.
In the same manner as in Example 2, 5 μl (10 nmol) of oxiracetam was administered and the threshold was measured.
In the von Frey test, the escape reactions caused by mechanical noxious stimulus, which was given for a time period of 60 minutes with intervals of 10 minutes, were evaluated as a threshold (g).

[2] = system: ddY male mice; assay: von Frey test, oral administration of nefiracetam, partial sciatic nerve ligation model; assay type: in vivo, mouse; conditions: oral administration 3, 10 or 30 mg/kg
Protocol: 36 of ddY male mice having a body weight of 16 to 18 g were used. In the von Frey test, the mice were placed on a mesh, and hind leg footpads of the mice were stimulated with a von Frey filament (digital type von Frey tester MODEL 1601 (IITC INC., U.S.A.)) every 15 minutes, and the threshold values observed at the beginning of an escape reaction were represented in a unit of gram. The mice were anesthetized with pentobarbital, and skin of right hind leg of each mouse was dissected so that sciatic nerve was observed. The half of sciatic nerve fibers was bound with a suture for 24 animals among the 36 animals, and only the dissection was performed for the remaining 12 animals (a sham group). After the dissection site was sutured, experiments were performed on the 7th day (Xun Ye et al, Jpn. J. Pharmacol. 2000, Malmberg A B and Basbaum A I, Pain 1998). […] The group of mice of which sciatic nerves were bound was divided into 4 groups, and the threshold was measured twice. […] Then, mice of each group were each orally administered with 3 mg/kg, 10 mg/kg or 30 mg/kg of nefiracetam or physiological saline (10 ml/kg), and the threshold was repeatedly measured for 90 minutes with intervals of 15 minutes. The mice of the control group (the sham group) that were subjected only to the dissection were divided into two groups, and a control value was measured in the same manner as described above. […]

[3] = system: male mouse; conditions: p.o.; cited from earlier work
[4] = system: ddY male mice; assay: Peripheral nociception test (bradykinin-induced nociceptive flexion reaction), partial sciatic nerve ligation model; assay type: in vivo, mouse
Protocol: 17 of ddY male mice having a body weight of 13 to 15 g were used. The mice were anesthetized with pentobarbital, and skin of right hind leg of each mouse was dissected so that sciatic nerve was observed. The half of sciatic nerve fibers was bound with a suture for 9 mice among 17 mice, and only the dissection was performed for the remaining 8 animals (a control group). After the dissection site was sutured, the animals were left for 7 days (Xun Ye et al, Jpn. J. Pharmacol. 2000, Malmberg A B and Basbaum A I, Pain 1998). […] The group of mice of which sciatic nerves were bound was divided into two groups, and mice of one group were each administered with 5 μl (10 nmol) of nefiracetam and mice of the other group were each administered with 5 μl of physiological saline into spinal subarachnoid space. After the administration, the mice were each subcutaneously administered at a right hind leg footpad with physiological saline at 10 minutes and 15 minutes, 2 μl (0.1 fmol) of bradykinin at 20 minutes and 25 minutes, 2 μl (1 fmol) of bradykinin at 30 minutes and 35 minutes, 2 μl (10 fmol) of bradykinin at 40 minutes and 45 minutes, and 2 μl (100 fmol) of bradykinin at 50 minutes and 55 minutes after the administration. […]
In the mouse peripheral nociception test, nociceptive flexion reactions caused by chemical pain stimulus using bradykinin were evaluated. […]

[5] = system: ddY male mice; assay: Hargreaves test, diabetic neuropathic pain (streptozotocin mice); assay type: in vivo, mouse; conditions: mice with diabetes mellitus (streptozotocin); oral administration 3, 10 or 30 mg/kg
Protocol: 36 of ddY male mice having a body weight of 28 to 30 g were used. In the Hargreaves test, the mice were placed on a glass plate, and hind leg footpads of the mice were stimulated with radiant heat (combination type analgesia meter MODEL 336 (IITC INC., U.S.A.)) every 10 minutes. And the latent time until the beginning of an escape reaction was measured. The mice with diabetes mellitus were prepared by administering streptozotocin (200 mg/kg) dissolved in 0.1 N citrate buffer (pH 4.5) to caudal arteries, and the experiment was performed on the 7th day. […] 24 animals among the 36 animals were determined as mice with diabetes mellitus according to the method described above, and the remaining 12 mice were administered with 0.1 N citrate buffer at caudal arteries and used as a comparative control group (control group). The mice with diabetes mellitus were divided into 4 groups, and the threshold was measured twice. […] Then, mice of each group were each orally administered with 3 mg/kg, 10 mg/kg or 30 mg/kg of nefiracetam or physiological saline (10 ml/kg), and the latent time was repeatedly measured for 60 minutes with intervals of 10 minutes. The control group was divided into two groups, and a control value was measured as described above. […]

Structure (SMILES)	effect on escape reaction threshold (von Frey) [1]	effect on noxious response threshold (von Frey) [1]	suppressing effect on neuropathic pain by oral administration (von Frey) [2]	Acute toxicity [3]	effect on the reaction caused by bradykinin administered to footpad ([4]; control group subjected only to the dissection, without nervous disturbance, administered into spinal subarachnoid space, compared to physiological saline)	bradykinin sensitive response (analgesic effect) ([4]; neuropathic pain model (sciatic nerve bound), administration into spinal subarachnoid space, bradykinin 0.1 to 100 fmol)	suppression effect on diabetic neuropathic pain (Hargreaves latent time) [5]
CN1CC[C@]23c4c5ccc(O)c4O[C@H]2[C@@H](O)C=C[C@H]3[C@H]1C5 [morphine, reference compound]	did not give significant effect	no significant effect	–	–	–	–	–
Cc1cccc(C)c1NC(=O)CN1CCCC1=O [nefiracetam, N-(2,6-dimethylphenyl)-2-(2-oxo-1-pyrrolidinyl)acetamide]	did not give significant effect	analgesic effect in a dose-dependent manner	suppressing effect on neuropathic pain	2,005 mg/kg	not significant	completely suppressed	suppression effect
NC(=O)CN1CC(O)CC1=O (stereo not shown) [oxiracetam, 4-hydroxy-2-oxo-1-pyrrolidineacetamide]	–	analgesic effect substantially equivalent to that of nefiracetam	–	–	–	–	–

Source: patent US7608636B2, “Medicines for treatment and prevention of neurogenic pain” (Hamilton Pharmaceuticals, Inc., priority 2000, dated 2009)
